Results reported in ChEMBL document CHEMBL4765227, “Hit to lead optimization of a series of N-[4-(1,3-benzothiazol-2-yl)phenyl]acetamides as monoacylglycerol lipase inhibitors with potential anticancer activity” (Eur J Med Chem, 2016).

Assays:
Assay type in all cases: functional
Settings in all cases: read-out: GI
MDA-MB-468 = assay: Growth inhibition of human MDA-MB-468 cells at 10 uM incubated for 48 hrs by sulforhodamine B assay relative to control
IGROV-1 = assay: Growth inhibition of human IGROV-1 cells at 10 uM incubated for 48 hrs by sulforhodamine B assay relative to control
SK-MEL-5 = assay: Growth inhibition of human SK-MEL-5 cells at 10 uM incubated for 48 hrs by sulforhodamine B assay relative to control
MDA-MB-231 = assay: Growth inhibition of human MDA-MB-231 cells at 10 uM incubated for 48 hrs by sulforhodamine B assay relative to control
MCF7 = assay: Growth inhibition of human MCF7 cells at 10 uM incubated for 48 hrs by sulforhodamine B assay relative to control
MOLT-4 = assay: Growth inhibition of human MOLT-4 cells at 10 uM incubated for 48 hrs by sulforhodamine B assay relative to control
SF-539 = assay: Growth inhibition of human SF-539 cells at 10 uM incubated for 48 hrs by sulforhodamine B assay relative to control
HCT-116 = assay: Growth inhibition of human HCT-116 cells at 10 uM incubated for 48 hrs by sulforhodamine B assay relative to control
NCI-H522 = assay: Growth inhibition of human NCI-H522 cells at 10 uM incubated for 48 hrs by sulforhodamine B assay relative to control
HT-29 = assay: Growth inhibition of human HT-29 cells at 10 uM incubated for 48 hrs by sulforhodamine B assay relative to control
HL-60(TB) = assay: Growth inhibition of human HL-60(TB) cells at 10 uM incubated for 48 hrs by sulforhodamine B assay relative to control
NCI/ADR-RES = assay: Growth inhibition of human NCI/ADR-RES cells at 10 uM incubated for 48 hrs by sulforhodamine B assay relative to control
Hs-578T = assay: Growth inhibition of human Hs-578T cells at 10 uM incubated for 48 hrs by sulforhodamine B assay relative to control
PC-3 = assay: Growth inhibition of human PC-3 cells at 10 uM incubated for 48 hrs by sulforhodamine B assay relative to control
NCI-H23 = assay: Growth inhibition of human NCI-H23 cells at 10 uM incubated for 48 hrs by sulforhodamine B assay relative to control
OVCAR-8 = assay: Growth inhibition of human OVCAR-8 cells at 10 uM incubated for 48 hrs by sulforhodamine B assay relative to control
786-0 = assay: Growth inhibition of human 786-0 cells at 10 uM incubated for 48 hrs by sulforhodamine B assay relative to control
DU-145 = assay: Growth inhibition of human DU-145 cells at 10 uM incubated for 48 hrs by sulforhodamine B assay relative to control
U-251 = assay: Growth inhibition of human U-251 cells at 10 uM incubated for 48 hrs by sulforhodamine B assay relative to control
LOX IMVI = assay: Growth inhibition of human LOX IMVI cells at 10 uM incubated for 48 hrs by sulforhodamine B assay relative to control
UO-31 = assay: Growth inhibition of human UO-31 cells at 10 uM incubated for 48 hrs by sulforhodamine B assay relative to control
SN12C = assay: Growth inhibition of human SN12C cells at 10 uM incubated for 48 hrs by sulforhodamine B assay relative to control
COLO 205 = assay: Growth inhibition of human COLO 205 cells at 10 uM incubated for 48 hrs by sulforhodamine B assay relative to control
A549 = assay: Growth inhibition of human A549/ATCC cells at 10 uM incubated for 48 hrs by sulforhodamine B assay relative to control
M14 = assay: Growth inhibition of human M14 cells at 10 uM incubated for 48 hrs by sulforhodamine B assay relative to control
CAKI-1 = assay: Growth inhibition of human CAKI-1 cells at 10 uM incubated for 48 hrs by sulforhodamine B assay relative to control
HOP-62 = assay: Growth inhibition of human HOP-62 cells at 10 uM incubated for 48 hrs by sulforhodamine B assay relative to control
KM12 = assay: Growth inhibition of human KM12 cells at 10 uM incubated for 48 hrs by sulforhodamine B assay relative to control
BT-549 = assay: Growth inhibition of human BT-549 cells at 10 uM incubated for 48 hrs by sulforhodamine B assay relative to control
TK-10 = assay: Growth inhibition of human TK-10 cells at 10 uM incubated for 48 hrs by sulforhodamine B assay relative to control
UACC-62 = assay: Growth inhibition of human UACC-62 cells at 10 uM incubated for 48 hrs by sulforhodamine B assay relative to control
K562 = assay: Growth inhibition of human K562 cells at 10 uM incubated for 48 hrs by sulforhodamine B assay relative to control
SR = assay: Growth inhibition of human SR cells at 10 uM incubated for 48 hrs by sulforhodamine B assay relative to control
OVCAR-4 = assay: Growth inhibition of human OVCAR-4 cells at 10 uM incubated for 48 hrs by sulforhodamine B assay relative to control
NCI-H322M = assay: Growth inhibition of human NCI-H322M cells at 10 uM incubated for 48 hrs by sulforhodamine B assay relative to control
ACHN = assay: Growth inhibition of human ACHN cells at 10 uM incubated for 48 hrs by sulforhodamine B assay relative to control
SK-OV-3 = assay: Growth inhibition of human SK-OV-3 cells at 10 uM incubated for 48 hrs by sulforhodamine B assay relative to control
MDA-MB-435 = assay: Growth inhibition of human MDA-MB-435 cells at 10 uM incubated for 48 hrs by sulforhodamine B assay relative to control
RXF 393 = assay: Growth inhibition of human RXF 393 cells at 10 uM incubated for 48 hrs by sulforhodamine B assay relative to control
CCRF-CEM = assay: Growth inhibition of human CCRF-CEM cells at 10 uM incubated for 48 hrs by sulforhodamine B assay relative to control
NCI-H226 = assay: Growth inhibition of human NCI-H226 cells at 10 uM incubated for 48 hrs by sulforhodamine B assay relative to control
OVCAR-3 = assay: Growth inhibition of human OVCAR-3 cells at 10 uM incubated for 48 hrs by sulforhodamine B assay relative to control
NCI-H460 = assay: Growth inhibition of human NCI-H460 cells at 10 uM incubated for 48 hrs by sulforhodamine B assay relative to control
SF-295 = assay: Growth inhibition of human SF-295 cells at 10 uM incubated for 48 hrs by sulforhodamine B assay relative to control

O=C(Cn1c2ccccc2c2ccccc21)Nc1ccc(-c2nc3ccccc3s2)cc1
inhibition of growth at 10 µM (MDA-MB-468): 83.4%
inhibition of growth at 10 µM (IGROV-1): 13.4%
inhibition of growth at 10 µM (SK-MEL-5): 6.47%
inhibition of growth at 10 µM (MDA-MB-231): 4.37%
inhibition of growth at 10 µM (MCF7): 67.4%
inhibition of growth at 10 µM (MOLT-4): 5.92%
inhibition of growth at 10 µM (SF-539): 4.12%
inhibition of growth at 10 µM (HCT-116): -7.02%
inhibition of growth at 10 µM (NCI-H522): 3.42%
inhibition of growth at 10 µM (HT-29): -6.06%
inhibition of growth at 10 µM (HL-60(TB)): -3.61%
inhibition of growth at 10 µM (NCI/ADR-RES): -1.93%
inhibition of growth at 10 µM (Hs-578T): -14.2%
inhibition of growth at 10 µM (PC-3): -4.16%
inhibition of growth at 10 µM (NCI-H23): 6.54%
inhibition of growth at 10 µM (OVCAR-8): -2.86%
inhibition of growth at 10 µM (786-0): -1.17%
inhibition of growth at 10 µM (DU-145): -2.93%
inhibition of growth at 10 µM (U-251): 6.01%
inhibition of growth at 10 µM (LOX IMVI): 8.68%
inhibition of growth at 10 µM (UO-31): 12.8%
inhibition of growth at 10 µM (SN12C): -1.32%
inhibition of growth at 10 µM (COLO 205): -8.95%
inhibition of growth at 10 µM (A549): 0.89%
inhibition of growth at 10 µM (M14): -14%
inhibition of growth at 10 µM (CAKI-1): 1.03%
inhibition of growth at 10 µM (HOP-62): -0.99%
inhibition of growth at 10 µM (KM12): 0.15%
inhibition of growth at 10 µM (BT-549): -5.6%
inhibition of growth at 10 µM (TK-10): -1.97%
inhibition of growth at 10 µM (UACC-62): 4.66%
inhibition of growth at 10 µM (K562): 4.71%
inhibition of growth at 10 µM (SR): 15.7%
inhibition of growth at 10 µM (OVCAR-4): -2.83%
inhibition of growth at 10 µM (NCI-H322M): -5.2%
inhibition of growth at 10 µM (ACHN): -4.15%
inhibition of growth at 10 µM (SK-OV-3): -7.77%
inhibition of growth at 10 µM (MDA-MB-435): -1.43%
inhibition of growth at 10 µM (RXF 393): -10.8%
inhibition of growth at 10 µM (CCRF-CEM): -5.65%
inhibition of growth at 10 µM (NCI-H226): 1.21%
inhibition of growth at 10 µM (OVCAR-3): -4.48%
inhibition of growth at 10 µM (NCI-H460): -1.93%
inhibition of growth at 10 µM (SF-295): 3.61%

O=C(CNc1nc2ccccc2s1)Nc1ccc(-c2nc3ccccc3s2)cc1
inhibition of growth at 10 µM (MDA-MB-468): 118%
inhibition of growth at 10 µM (IGROV-1): 33.4%
inhibition of growth at 10 µM (SK-MEL-5): -2.93%
inhibition of growth at 10 µM (MDA-MB-231): 0.75%
inhibition of growth at 10 µM (MCF7): 75.2%
inhibition of growth at 10 µM (MOLT-4): 15.8%
inhibition of growth at 10 µM (SF-539): -7.1%
inhibition of growth at 10 µM (HCT-116): 1.08%
inhibition of growth at 10 µM (NCI-H522): 8.76%
inhibition of growth at 10 µM (HT-29): -8.9%
inhibition of growth at 10 µM (HL-60(TB)): 0.87%
inhibition of growth at 10 µM (NCI/ADR-RES): -1.94%
inhibition of growth at 10 µM (Hs-578T): -0.48%
inhibition of growth at 10 µM (PC-3): 4.99%
inhibition of growth at 10 µM (NCI-H23): 11.2%
inhibition of growth at 10 µM (OVCAR-8): -2.25%
inhibition of growth at 10 µM (786-0): -1.86%
inhibition of growth at 10 µM (DU-145): -5.64%
inhibition of growth at 10 µM (U-251): 10.9%
inhibition of growth at 10 µM (LOX IMVI): 24.2%
inhibition of growth at 10 µM (UO-31): 19.5%
inhibition of growth at 10 µM (SN12C): -2.68%
inhibition of growth at 10 µM (COLO 205): -11.7%
inhibition of growth at 10 µM (A549): -0.04%
inhibition of growth at 10 µM (M14): -15.4%
inhibition of growth at 10 µM (CAKI-1): -0.18%
inhibition of growth at 10 µM (HOP-62): -4.25%
inhibition of growth at 10 µM (KM12): 0.84%
inhibition of growth at 10 µM (BT-549): -6.3%
inhibition of growth at 10 µM (TK-10): 3.3%
inhibition of growth at 10 µM (UACC-62): 5.38%
inhibition of growth at 10 µM (K562): 4.87%
inhibition of growth at 10 µM (SR): 8.72%
inhibition of growth at 10 µM (OVCAR-4): -1.76%
inhibition of growth at 10 µM (NCI-H322M): 7.75%
inhibition of growth at 10 µM (ACHN): -6.65%
inhibition of growth at 10 µM (SK-OV-3): -7.21%
inhibition of growth at 10 µM (MDA-MB-435): -8.66%
inhibition of growth at 10 µM (RXF 393): -12.5%
inhibition of growth at 10 µM (CCRF-CEM): -10.5%
inhibition of growth at 10 µM (NCI-H226): 7.62%
inhibition of growth at 10 µM (OVCAR-3): 2.04%
inhibition of growth at 10 µM (NCI-H460): 0.21%
inhibition of growth at 10 µM (SF-295): -7.45%
